Literature values, collected in patent US11708377B2, “Analogues and derivatives of cephalotaxine and methods for making and using the compounds” (Oregon State University, priority 2019, dated 2023).

What was measured:
[1] = background statement; lacks the ester sidechain of HHT
leukemia cells = settings: background statement, no figure given

| Compound | biological activity [1] | cytotoxicity against leukemia cells (leukemia cells) |
| --- | --- | --- |
| COC1=C[C@]23CCCN2CCc2cc4c(cc2[C@@H]3[C@@H]1O)OCO4 [Cephalotaxine, (−)-Cephalotaxine] | biologically inactive | – |
| COC(=O)C[C@](O)(CCCC(C)(C)O)C(=O)O[C@@H]1C(OC)=C[C@]23CCCN2CCc2cc4c(cc2[C@H]13)OCO4 [HHT, (−)-Homoharringtonine] | – | nanomolar cytotoxicity |
